Experimental data from PMC7377239, “Cardiovascular Effects of Polychlorinated Biphenyls and Their Major Metabolites” (Environmental Health Perspectives, 2020).

Test system: iPSC-CMs, iPSC-ECs and HUVECs phenotypes
Experiment: ToxPi 2.0 integration of POD values and physicochemical descriptors
Set-up: species or system human
Conditions: ToxPi-scaled (0-1) score; for huvec.cyto.24hr / huvec.mito.24hr / huvec.mitoint.24hr / huvec.nma.24hr / huvec.tc.24hr / huvec.mtl.18hr / huvec.tlps.18hr / huvec.tta.18hr / huvec.ttl.18hr: HUVECs; for huvec.mtl.18hr / huvec.tlps.18hr / huvec.tta.18hr / huvec.ttl.18hr / endo.mtl.18hr / endo.tlps.18hr / endo.tta.18hr / endo.ttl.18hr: tube formation; for cm.amp.avg.90min / cm.amp.cv.90min / cm.bpm.90min / cm.cam.90min / cm.decay.rise.90min / cm.mii.90min / cm.mito.90min / cm.spacing.cv.90min / cm.tc.90min / cm.amp.avg.24hrs / cm.amp.cv.24hrs / cm.bpm.24hrs / cm.cam.24hrs / cm.decay.rise.24hrs / cm.mii.24hrs / cm.mito.24hrs / cm.spacing.cv.24hrs / cm.tc.24hrs: iPSC cardiomyocytes; for endo.cyto.24hr / endo.mito.24hr / endo.mitoint.24hr / endo.nma.24hr / endo.tc.24hr / endo.mtl.18hr / endo.tlps.18hr / endo.tta.18hr / endo.ttl.18hr: iPSC endothelial cells
Source text: Phenotypic responses were quantitatively assessed using concentration–response modeling as detailed elsewhere ([Sirenko et al. 2017]). Briefly, phenotypic readouts were normalized to vehicle controls and fit to a four-parameter logistic model in R studio software (version 3.1.1; R Development Core Team). Following EPA guidance on dose–response modeling, a cutoff of one standard deviation across means of vehicle control (i.e., 0.5% vol/vol DMSO in cell culture media) wells was applied to determine the point-of-departure (POD) values ([U.S. EPA 2012]). In the absence of a concentration–response, the highest tested concentration (i.e., 100μM ) was assigned as “no observable adverse effect level.” The concentration–response assessment R script, as well as templates for vehicle and concentration–response data, are available as a supplement to Sirenko et al. ([2017]). The ability of physicochemical properties to predict differences in PODs were evaluated by multiregression and mixed-effects modeling using R.
POD values were then integrated using ToxPi 2.0 ([Marvel et al. 2018]) software. In ToxPi, each slice is representative of cell type– and time-point–specific phenotypes. The area of each slice is proportional to the relative value (e.g., bioactivity or physicochemical descriptor value) of the chemical within the data set. ToxPi scores were used to rank PCBs and their metabolites according to their overall bioactivity and to determine variability in total observable biological responses and chemical characteristics for each major metabolite class and chlorination status (mono-, hexa-chlorinated). Additional visualizations such as dumbbell and principal components analysis plots were generated in R Studio (version 1.1.456; R version 3.5.1; R Development Core Team) using the ggplot2 package.

Structure (SMILES)	huvec.cyto.24hr	huvec.mito.24hr	huvec.mitoint.24hr	huvec.nma.24hr	huvec.tc.24hr	huvec.mtl.18hr	huvec.tlps.18hr	huvec.tta.18hr	huvec.ttl.18hr	cm.amp.avg.90min	cm.amp.cv.90min	cm.bpm.90min	cm.cam.90min	cm.decay.rise.90min	cm.mii.90min	cm.mito.90min	cm.spacing.cv.90min	cm.tc.90min	cm.amp.avg.24hrs	cm.amp.cv.24hrs	other results
Oc1ccc(-c2ccc(Cl)cc2)cc1 [4'-OH-PCB 3]	0.275	0.3852	0.4333	0.3408	0.275	0.9876	1	0.5814	0.4466	0.5917	0.3333	0.8225	0.8629	0.5699	0.6837	0.8821	0.08302	0.896	1	0.8417	cm.bpm.24hrs: 0.3262; cm.cam.24hrs: 0.1519; cm.decay.rise.24hrs: 0.2382; cm.mii.24hrs: 0.4953; cm.mito.24hrs: 0.213; cm.spacing.cv.24hrs: 0.1936; cm.tc.24hrs: 0.2201; endo.cyto.24hr: 0.1551; endo.mito.24hr: 0.1551; endo.mitoint.24hr: 0; endo.nma.24hr: 0; endo.tc.24hr: 0.1152; endo.mtl.18hr: 0.4612; endo.tlps.18hr: 1; endo.tta.18hr: 0.4055; endo.ttl.18hr: 0.4146
Oc1cccc(-c2ccc(Cl)cc2)c1 [3'-OH-PCB 3]	0.4672	0.5506	0.1749	1	0.4672	1	0.8699	0.6576	0.5155	0.6872	0.2705	0.8835	0.7562	0.4777	0.3912	0.7743	0.07935	0.7836	0.4464	0.3812	cm.bpm.24hrs: 0.4553; cm.cam.24hrs: 0.2634; cm.decay.rise.24hrs: 0.8154; cm.mii.24hrs: 0.3889; cm.mito.24hrs: 0.4239; cm.spacing.cv.24hrs: 0.8008; cm.tc.24hrs: 0.4277; endo.cyto.24hr: 0.1365; endo.mito.24hr: 0.1365; endo.mitoint.24hr: 0; endo.nma.24hr: 0.4106; endo.tc.24hr: 0.1112; endo.mtl.18hr: 0.5876; endo.tlps.18hr: 0.7333; endo.tta.18hr: 0.4844; endo.ttl.18hr: 0.4865
Clc1ccc(Cl)c(-c2c(Cl)ccc(Cl)c2Cl)c1Cl [(+)-PCB 136, 2,2′,3,3′,6,6′-hexachlorobiphenyl]	0.7118	0.6728	1	0.5111	0.7118	0.4492	0	0	0	0.6409	0.2396	0.7987	0.4781	0.1898	0.5827	0.4679	0.07704	0.4097	0.5612	0.5448	cm.bpm.24hrs: 0.7213; cm.cam.24hrs: 0.5816; cm.decay.rise.24hrs: 0.9212; cm.mii.24hrs: 0.1793; cm.mito.24hrs: 0.8542; cm.spacing.cv.24hrs: 0.7501; cm.tc.24hrs: 1; endo.cyto.24hr: 0.1692; endo.mito.24hr: 0.1692; endo.mitoint.24hr: 0.294; endo.nma.24hr: 0; endo.tc.24hr: 0.1732; endo.mtl.18hr: 0.04754; endo.tlps.18hr: 0.448; endo.tta.18hr: 0.8586; endo.ttl.18hr: 0.8499
COc1ccc(-c2cccc(Cl)c2)cc1Cl [4-OMe-PCB 11, 4-methoxy-3,3′-dichlorobiphenyl]	0.2668	0.3305	0.3626	0.3507	0.2668	0.5304	0.2567	0	0.6633	0.6528	0.2486	0.4773	0.4476	0.5303	0.1771	0.5027	0.1369	0.5138	0.152	0.06047	cm.bpm.24hrs: 0.441; cm.cam.24hrs: 0.1329; cm.decay.rise.24hrs: 0.2452; cm.mii.24hrs: 0.5873; cm.mito.24hrs: 0.2518; cm.spacing.cv.24hrs: 0.1755; cm.tc.24hrs: 0.2526; endo.cyto.24hr: 0; endo.mito.24hr: 0; endo.mitoint.24hr: 0; endo.nma.24hr: 0; endo.tc.24hr: 0; endo.mtl.18hr: 0; endo.tlps.18hr: 0.2016; endo.tta.18hr: 1; endo.ttl.18hr: 1
Clc1ccc(Cl)c(-c2c(Cl)ccc(Cl)c2Cl)c1Cl [(-)-PCB 136, 2,2′,3,3′,6,6′-hexachlorobiphenyl]	0.6125	0.5549	0.9537	0.4969	0.6125	0.3427	0.303	0.01368	0	0.7629	0.2327	0.26	0.908	0.5565	0.3116	0.9077	0.07999	0.9177	0.7236	1	cm.bpm.24hrs: 0.3802; cm.cam.24hrs: 0.2824; cm.decay.rise.24hrs: 0.8976; cm.mii.24hrs: 0.3373; cm.mito.24hrs: 0.4521; cm.spacing.cv.24hrs: 0.2002; cm.tc.24hrs: 0.472; endo.cyto.24hr: 0.3713; endo.mito.24hr: 0.3713; endo.mitoint.24hr: 0.4668; endo.nma.24hr: 0; endo.tc.24hr: 0.3821; endo.mtl.18hr: 0.07274; endo.tlps.18hr: 0.09334; endo.tta.18hr: 0.6122; endo.ttl.18hr: 0.627
